Blank lines part the entries; values can stand above or below the compound they belong to. Active and inactive are the calls of the source.
Assays:
Protein Tat = target: T1, Protein Tat (Human immunodeficiency virus type 1 group M subtype B (isolate HXB2)(HIV-1), UniProt P04608); assay type: functional;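 also: tat binding to TAR RNA read out by fluorescence polarization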
T1 sequence (P04608 whole entry): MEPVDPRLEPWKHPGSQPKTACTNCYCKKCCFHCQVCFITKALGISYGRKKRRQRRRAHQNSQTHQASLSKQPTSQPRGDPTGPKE

Aminopeptidase N = target: T2, Aminopeptidase N (Plasmodium falciparum FcB1/Columbia, UniProt O96935); assay: malaria alanyl aminopeptidase activity blockers – biochemical, fluorogenic H-Leu-NHMec substrate, 1536-well (AID 1445); set-up: species or system Plasmodium falciparum 3D7, 3D7
T2 sequence (O96935 whole entry): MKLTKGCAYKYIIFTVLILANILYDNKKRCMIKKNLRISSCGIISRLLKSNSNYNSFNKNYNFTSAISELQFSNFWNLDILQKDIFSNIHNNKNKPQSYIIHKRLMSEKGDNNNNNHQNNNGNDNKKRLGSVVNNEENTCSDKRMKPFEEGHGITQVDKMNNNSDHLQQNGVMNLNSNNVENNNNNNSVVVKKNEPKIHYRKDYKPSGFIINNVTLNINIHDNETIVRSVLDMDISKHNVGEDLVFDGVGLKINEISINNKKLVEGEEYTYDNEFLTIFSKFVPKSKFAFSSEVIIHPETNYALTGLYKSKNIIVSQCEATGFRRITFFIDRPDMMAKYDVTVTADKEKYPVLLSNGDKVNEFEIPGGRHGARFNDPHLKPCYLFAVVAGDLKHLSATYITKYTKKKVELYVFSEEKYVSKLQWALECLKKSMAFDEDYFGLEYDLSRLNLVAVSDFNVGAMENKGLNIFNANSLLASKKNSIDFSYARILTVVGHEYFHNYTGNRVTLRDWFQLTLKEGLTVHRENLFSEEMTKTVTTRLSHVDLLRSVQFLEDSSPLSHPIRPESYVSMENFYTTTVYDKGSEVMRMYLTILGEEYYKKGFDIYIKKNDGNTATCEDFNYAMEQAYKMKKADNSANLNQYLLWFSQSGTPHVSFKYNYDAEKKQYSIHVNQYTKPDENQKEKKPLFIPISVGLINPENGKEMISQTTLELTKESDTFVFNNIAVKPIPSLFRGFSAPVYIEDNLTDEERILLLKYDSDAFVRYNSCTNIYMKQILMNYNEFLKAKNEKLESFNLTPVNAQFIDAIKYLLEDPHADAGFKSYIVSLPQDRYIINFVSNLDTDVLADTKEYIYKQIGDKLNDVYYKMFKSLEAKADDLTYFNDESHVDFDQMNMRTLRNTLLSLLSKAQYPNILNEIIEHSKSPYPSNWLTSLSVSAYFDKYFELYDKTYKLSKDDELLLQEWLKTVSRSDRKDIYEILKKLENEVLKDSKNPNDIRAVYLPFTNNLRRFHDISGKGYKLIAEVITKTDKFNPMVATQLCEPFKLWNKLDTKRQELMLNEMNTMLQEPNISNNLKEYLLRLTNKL

[1] = loss of viability in HepG2 cells – cell-based, CellTiter-Glo, cherry-picked, cytotoxicity control for Shn3 inhibitor project, dose response (AID 624134); assay type: functional
[2] = non-specific 3'UTR reporter inhibition in Clone20-Shn3RL – cell-based, Renilla luciferase, cherry-picked, counter-screen for Shn3 inhibitor project, dose response (AID 624133); assay type: functional
[3] = reduction of Shn3 3'UTR-driven luciferase in osteoblasts – cell-based, Clone20 osteoblasts, firefly luciferase, cherry-picked, dose response (AID 624132); assay type: functional;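 also: firefly luciferase luminescence from reporter carrying the Shn3 3'UTR in osteoblasts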
[4] = NIH3T3 cell viability loss – ATP luminescence, mouse fibroblasts, counter-screen, dose response (AID 2010); assay type: functional, cell-based;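 also: cells exposed to compound for about 90 hours before reading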
[5] = target: Heat shock protein HSP 90-alpha (Homo sapiens, UniProt P07900); assay type: functional, organism-based
[6] = Trypanosoma cruzi growth suppression in host cells – NIH3T3 host cells, beta-gal luminescence, confirmation (AID 2044); assay type: functional, cell-based;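 also: intracellular parasites grown in NIH/3T3 mouse fibroblasts as host cells; luminescent beta-galactosidase reporter signal from transgenic T. cruzi replicating inside host cells; inhibitors lower the luminescence signal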
[7] = target: Nuclear receptor subfamily 5 group A member 2 (Homo sapiens, UniProt O00482); assay type: functional, cell-based;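 also: HEK293T cells transfected with LRH-1 and a StAR promoter luciferase reporter; potency for inhibitors that lower LRH-1 driven reporter light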
Nuclear receptor subfamily 5 group A member 2, sequence (O00482 whole entry): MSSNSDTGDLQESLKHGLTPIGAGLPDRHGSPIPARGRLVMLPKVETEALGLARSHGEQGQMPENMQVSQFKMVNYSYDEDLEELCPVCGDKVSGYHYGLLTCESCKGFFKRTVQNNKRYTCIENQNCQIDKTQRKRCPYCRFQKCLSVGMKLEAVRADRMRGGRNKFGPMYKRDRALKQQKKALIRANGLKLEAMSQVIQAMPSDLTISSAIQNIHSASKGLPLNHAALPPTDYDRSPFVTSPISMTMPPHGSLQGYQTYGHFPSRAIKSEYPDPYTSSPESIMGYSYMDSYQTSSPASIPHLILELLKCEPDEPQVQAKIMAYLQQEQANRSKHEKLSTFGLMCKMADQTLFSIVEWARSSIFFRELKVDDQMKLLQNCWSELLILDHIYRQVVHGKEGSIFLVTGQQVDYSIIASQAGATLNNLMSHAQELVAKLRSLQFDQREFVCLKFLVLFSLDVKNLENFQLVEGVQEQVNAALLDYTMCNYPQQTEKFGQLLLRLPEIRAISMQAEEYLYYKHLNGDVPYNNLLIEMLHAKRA

[8] = nonselective StAR promoter luciferase inhibitors – cell-based, luminescence, luciferase reporter, counter-screen for LRH-1 inverse agonist project, dose response (AID 651969); assay type: functional
Steroidogenic factor 1 = Steroidogenic factor 1 (Homo sapiens, UniProt Q13285); assay: Counterscreen for inverse agonists of the liver receptor homolog-1 (LRH-1; NR5A2): Luminescence-based cell-based high throughput dose response assay to identify inverse agonists of the Steroidogenic Factor 1 Nuclear Receptor (SF1; NR5A1).; assay type: functional
Steroidogenic factor 1, sequence (Q13285 whole entry): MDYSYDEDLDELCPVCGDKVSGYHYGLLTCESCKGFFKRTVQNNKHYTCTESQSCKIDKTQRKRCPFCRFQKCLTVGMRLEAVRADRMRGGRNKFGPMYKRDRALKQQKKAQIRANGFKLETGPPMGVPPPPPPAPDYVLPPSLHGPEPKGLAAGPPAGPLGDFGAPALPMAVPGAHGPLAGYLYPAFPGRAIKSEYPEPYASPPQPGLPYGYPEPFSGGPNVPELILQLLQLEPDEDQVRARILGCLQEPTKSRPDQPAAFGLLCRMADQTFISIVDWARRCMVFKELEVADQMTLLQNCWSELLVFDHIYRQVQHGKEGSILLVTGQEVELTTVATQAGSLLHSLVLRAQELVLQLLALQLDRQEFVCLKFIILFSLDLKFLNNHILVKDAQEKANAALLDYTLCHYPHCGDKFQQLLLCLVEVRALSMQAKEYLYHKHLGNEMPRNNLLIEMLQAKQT

Paired box protein Pax-8 = Paired box protein Pax-8 (Homo sapiens, UniProt Q06710); assay: PAX8 transcriptional activity inhibition in RMG-I – RMG-I cells, luciferase, cherry-pick, dose response (AID 687027); assay type: functional, cell-based;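 also: luciferase reporter driven by Pax8 target thyroperoxidase promoter measured by SteadyGlo luminescence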
Paired box protein Pax-8, sequence (Q06710 whole entry): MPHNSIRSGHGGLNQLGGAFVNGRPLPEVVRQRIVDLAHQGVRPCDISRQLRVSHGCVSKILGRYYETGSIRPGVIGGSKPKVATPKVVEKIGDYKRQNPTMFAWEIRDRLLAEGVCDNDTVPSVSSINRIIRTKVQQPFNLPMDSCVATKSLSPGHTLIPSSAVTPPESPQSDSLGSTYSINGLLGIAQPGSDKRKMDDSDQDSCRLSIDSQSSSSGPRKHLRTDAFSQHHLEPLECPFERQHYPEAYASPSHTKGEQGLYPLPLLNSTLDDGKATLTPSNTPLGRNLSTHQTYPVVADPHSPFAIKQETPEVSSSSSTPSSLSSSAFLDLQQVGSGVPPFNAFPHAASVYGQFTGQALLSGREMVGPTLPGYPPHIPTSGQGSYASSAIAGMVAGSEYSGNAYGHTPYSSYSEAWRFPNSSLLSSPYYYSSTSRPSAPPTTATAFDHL

Caspase-6 = target: T3, Caspase-6 (Homo sapiens, UniProt P55212); assay: inhibition of CASP6 peptide cleavage – biochemical, VEID-R110 fluorescence, cherry-pick, dose response (AID 720632)
T3 sequence (P55212 whole entry): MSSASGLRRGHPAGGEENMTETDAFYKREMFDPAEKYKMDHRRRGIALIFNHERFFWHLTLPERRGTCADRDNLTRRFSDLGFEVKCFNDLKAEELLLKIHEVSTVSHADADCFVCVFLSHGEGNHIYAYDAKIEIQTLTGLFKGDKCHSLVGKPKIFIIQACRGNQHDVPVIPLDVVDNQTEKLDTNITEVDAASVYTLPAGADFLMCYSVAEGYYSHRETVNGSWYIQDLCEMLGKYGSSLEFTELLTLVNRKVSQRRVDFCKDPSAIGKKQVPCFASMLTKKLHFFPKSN

IC50 (Protein Tat): > 100 µM (active)
Structure (SMILES): CCOC(=O)c1nn(-c2ccc(Cl)cc2Cl)c(=N)c(C#N)c1C

IC50 (Aminopeptidase N): 103 µM (active)
Structure (SMILES): C=CCn1c(CNC(=O)c2ccccc2F)nnc1SCC(=O)NC(C)c1ccccc1 (stereo unspecified)

Structure (SMILES): NS(=O)(=O)c1ccc(CCNCc2cc(Cl)ccc2OCc2ccccc2)cc1
AC50 [1]: 46.9 µM (active) | AC50 [2]: 7.31 µM (active) | AC50 [3]: 4.46 µM (active)

IC50 (Aminopeptidase N): 24.3 µM (active)
Structure (SMILES): Cc1ccccc1S(=O)(=O)Nc1ncnc2scc(-c3ccccc3)c12

Structure (SMILES): CCC(C)(C)n1nnnc1C(c1cccnc1)N1CCC(Cc2ccccc2)CC1 (stereo unspecified)
EC50 [4]: 49 µM (active) | AC50 [5]: 1.09 µM (active) | EC50 [6]: 0.151 µM (active)

IC50 (Aminopeptidase N): 46.5 µM (active)
Structure (SMILES): O=C(NN1C(=O)c2ccccc2NC1c1ccoc1)c1ccccc1 (stereo unspecified)

Structure (SMILES): Cc1cc(C)c2nc(NC(=O)c3ccc([N+](=O)[O-])o3)sc2c1
IC50 [7]: 35.9 µM (inactive) | IC50 [8]: 35.9 µM (inactive) | IC50 (Steroidogenic factor 1): 0.148 µM (active)

Structure (SMILES): CC(C)OC(=O)c1ccc(NCc2cc(O)ccc2O)cc1
AC50 [1]: 7.81 µM (active) | AC50 [5]: 25 µM (active) | AC50 [2]: 5.28 µM (active) | AC50 [3]: 1.9 µM (active)

Structure (SMILES): Cc1cc(OCC(=O)N2CCC(O)CC2)c2c(C)cc(=O)oc2c1
IC50 [7]: 19 µM (inactive) | IC50 [8]: 35.9 µM (inactive) | IC50 (Steroidogenic factor 1): 11.2 µM (inactive)

AC50 [5]: 4.74 µM (active)
Structure (SMILES): Cc1cccc(N2CCN(S(=O)(=O)c3c(C)noc3/C=C/N(C)C)CC2)c1C

Structure (SMILES): CCCCCCN1C[C@@H](n2cc(-c3ccc(F)cc3)nn2)[C@H](O)C[C@@H]1c1ccc(Cl)cc1
AC50 [1]: 41.6 µM (active) | AC50 [2]: 21.5 µM (active) | AC50 [3]: 12.5 µM (active) | AC50 (Paired box protein Pax-8): 9.71 µM (active)

AC50 (Caspase-6): 42.2 µM (active)
Structure (SMILES): O=C(COC(=O)c1ccc([N+](=O)[O-])o1)NCCc1ccccc1

Source: ChEMBL document CHEMBL1201862, “PubChem BioAssay data set” (2004)
